Test results reported in patent US7947834B2, “Substituted quinoxalines, their preparation and their therapeutical use as 11βHSD1 modulators” (Sanofi-Aventis, priority 2006, dated 2011).
Structures can show the parent of a compound that is named as a salt.

Experiments:
11βHSD1 in the eyes = biological target: T1, 11βHSD1 in the eyes (Homo sapiens, UniProt P28845); settings: healthy volunteers, after treating for seven days; cited from earlier work
T1 construct: host or cells: eyes of healthy volunteers (in vivo)
T1 sequence (P28845 whole entry): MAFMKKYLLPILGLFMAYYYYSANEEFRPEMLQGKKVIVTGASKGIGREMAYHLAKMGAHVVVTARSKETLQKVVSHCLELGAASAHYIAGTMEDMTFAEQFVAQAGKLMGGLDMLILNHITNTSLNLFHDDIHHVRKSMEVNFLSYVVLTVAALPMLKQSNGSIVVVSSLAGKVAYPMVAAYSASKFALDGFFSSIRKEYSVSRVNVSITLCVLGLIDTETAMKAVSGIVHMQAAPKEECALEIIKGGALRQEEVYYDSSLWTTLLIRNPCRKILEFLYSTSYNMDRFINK

[1] = biological target: T2, recombinant 11β-HSD1 protein (Homo sapiens, UniProt P28845); test: 11β-HSD1 SPA (Scintillation Proximity Assay) enzyme inhibition test, 384-well format; type: biochemical; settings: 3H-cortisone and NADPH; cortisol formed measured by SPA; read-out: IC50 (concentration which inhibits 50% of the activity of 11β-HSD1)
T2 construct: made in house; host or cells: Saccharomyces cerevisiae
T2 sequence (P28845 whole entry, species assumed): as the sequence (P28845 whole entry) above
Excerpt: The compounds according to the invention formed the subject of pharmacological tests which make it possible to determine their inhibiting effect on the 11β-HSD1 enzyme, which is an enzyme which is involved in the metabolism of lipids or the metabolism of glucose.
These tests consisted in measuring the in vitro inhibiting activity of the compounds of the invention by virtue of an SPA (Scintillation Proximity Assay) test in 384-well format. The recombinant 11β-HSD1 protein was produced in the yeast S. cerevisiae. The reaction was carried out by incubating the enzyme in the presence of ^3H-cortisone and of NADPH, in the absence or in the presence of an increasing concentration of inhibitor. SPA beads coupled to an antimouse antibody, which are preincubated with anticortisol antibody, made it possible to measure the amount of cortisol formed during the reaction.
The inhibiting activity with regard to the enzyme 11β-HSD1 is given by the concentration which inhibits 50% of the activity of 11β-HSD1 (IC50).

Compound	melting point	reduction of the intraocular pressure (IOP) (11βHSD1 in the eyes)	IC50 [1]
CN(C)C(=O)N1CCN(C(=O)N2CCC(c3cccnc3)C2)c2ccccc21.Cl (centres unmarked)	181 °C	–	–
CCCCN1CCN(C(=O)N2CCC(c3cccnc3)C2)c2ccccc21.Cl (centres unmarked)	191 °C	–	–
CC(=O)N1CCN(C(=O)N2CCC(c3cccnc3)C2)c2ccccc21.Cl (centres unmarked)	201 °C	–	–
N#CC1(c2ccccc2)CCN(C(=O)N2CCCc3ccccc32)CC1	53 to 59 °C	–	–
Cl.O=C(N1CCC(c2cccnc2)C1)N1CCOc2ccccc21 (centres unmarked)	60 to 90 °C	–	–
Cl.O=C(N1CCC(c2cccnc2)C1)N1CCOc2ccc(CO)cc21 (centres unmarked)	273 °C	–	–
CCCN1CCN(C(=O)N2CCC(c3cccnc3)C2)c2ccccc21 (centres unmarked) (as salt: HCl) [compound 101]	121 °C	–	–
CC1(C)[C@@H](OC(=O)CCC(=O)O)CC[C@]2(C)[C@H]3C(=O)C=C4[C@@H]5C[C@@](C)(C(=O)O)CC[C@]5(C)CC[C@@]4(C)[C@]3(C)CC[C@@H]12 [carbenoxolone]	–	18%	–
Cl.O=C(N1CCC(c2ccncc2)CC1)N1CCCc2ccccc21 [compound 4, 1-[(4-(Pyridin-4-yl)piperidin-1-yl)carbonyl]-1,2,3,4-tetrahydroquinoline Hydrochloride]	198 °C	–	115 nM
O=C(N1CCC2(C=Cc3ccccc32)CC1)N1CCCc2ccccc21 [compound 15, 1′-(3,4-Dihydroquinolin-1(2H)-ylcarbonyl)spiro[indene-1,4′-piperidine]]	130 to 133 °C	–	–
O=C(N1CCC2(CCCc3ccccc32)CC1)N1CCCc2ccccc21 [compound 18]	52 to 65 °C	–	43 nM
O=C(N1CCC(c2nc(-c3c(Cl)cccc3Cl)no2)CC1)N1CCCc2ccccc21 [compound 25, 1-({4-[3-(2,6-Dichlorophenyl)-1,2,4-oxadiazol-5-yl]piperidin-1-yl}carbonyl)-1,2,3,4-tetrahydroquinoline]	63 to 68 °C	–	–
COc1cc(N2CCN(C(=O)N3CCC(c4cn[nH]c4)C3)c3ccccc32)ccc1C(=O)NC1CC1 (centres unmarked) [compound 78]	–	–	39 nM
CCCN1CCN(C(=O)N2CCC(c3cccnc3)C2)c2ccccc21 (centres unmarked) [compound 101]	–	–	90 nM
CS(=O)(=O)c1ccc(CN2CCN(C(=O)N3CCC(c4cn[nH]c4)C3)c3ccccc32)cc1 (centres unmarked) [compound 161, [4-(4-(Methanesulfonyl)benzyl)-3,4-dihydro-2H-quinoxalin-1-yl][3-(1H-pyrazol-4-yl)pyrrolidin-1-yl]methanone]	239 °C	–	–
N#Cc1cccc(CN2CCN(C(=O)N3CCC(c4cn[nH]c4)C3)c3ccccc32)c1 (centres unmarked) [compound 162]	174 °C	–	57 nM
O=C(NN1CCCCC1)c1ccc(N2CCN(C(=O)N3CCC(c4cn[nH]c4)C3)c3ccccc32)cc1 (centres unmarked) [compound 172, N-(Piperidin-1-yl)-4-{4-[3-(1H-pyrazol-4-yl)pyrrolidine-1-carbonyl]-3,4-dihydro-2H-quinoxalin-1-yl}benzamide]	251 °C	–	–
COc1cc(N2CCN(C(=O)N3CCC(c4cn[nH]c4)C3)c3ccccc32)ccc1C(=O)NC1CC1 (centres unmarked) [compound 178, N-Cyclopropyl-2-methoxy-4-{4-[3-(1H-pyrazol-4-yl)pyrrolidine-1-carbonyl]-3,4-dihydro-2H-quinoxalin-1-yl}benzamide]	100 °C	–	–
NC(=O)c1ccc(N2CCN(C(=O)N3CCC(c4cn[nH]c4)C3)c3ccccc32)cn1 (centres unmarked) [compound 188]	90 °C	–	130 nM
